{"source": "patent US9365619B2", "about": "“IgG-binding peptide and method for detecting and purifying IgG using same” (Otsuka Chemical Co., Ltd., priority 2011, dated 2016)", "target": "human IgG", "assay": "Surface plasmon resonance (SPR) analysis of synthetic peptide binding to human IgG", "conditions": "for affinity compared with the original peptide, in words: compared with GFc-C35-3/15; for fold increase in affinity (fold decrease in Kd value): relative to original peptide GFc-C35-3/15", "procedure": "In order to narrow down the amino acid region to be studied, a peptide in which one amino acid was deleted from each end of GFc-C35 (GFc-C35-2/16) and a peptide in which two amino acids were deleted from each end of CFc-C35 (GFc-C35-3/15) were synthesized. Among these peptides, based on the GFc-C35-3/15 synthetic peptide, the effect of the introduction of amino acid mutations on affinity was evaluated. That is, the contribution of each amino acid substitution to affinity was evaluated by synthesizing peptides substituted with frequently or occasionally observed amino acids obtained from the phage libraries and subjecting the resulting synthetic peptides to binding analysis.\nBased on the synthetic peptide C35A, peptides substituted with amino acids observed at high frequency in the aforementioned phage libraries were synthesized by introducing amino acid mutations, and in a similar manner to the above, their binding to human IgG was analyzed by surface plasmon resonance (SPR) analysis to evaluate the contribution of each amino acid substitution to affinity.", "key": {"[1]": {"conditions": "SPR, synthetic peptide binding to human IgG, read-out: Kd"}, "[2]": {"conditions": "SPR sensorgram analysis, human IgG"}}, "note": "Read-outs that look alike come from different tables or passages of the source. Bridge positions count the residues as written; N and C are the ends. Peptide text beside a SMILES is read from it.", "data": [{"smiles": "CSCC[C@@H]1NC(=O)[C@H](CC(N)=O)NC(=O)CNC(=O)[C@H](CC(N)=O)NC(=O)[C@H]([C@@H](C)O)NC(=O)[C@H](Cc2ccc(O)cc2)NC(=O)[C@H]([C@@H](C)O)NC(=O)[C@@H](NC(=O)[C@@H](N)CC(=O)O)CSSC[C@@H](C(=O)N[C@H](C(N)=O)[C@@H](C)O)NC(=O)[C@H](Cc2c[nH]c3ccccc23)NC(=O)[C@H](C(C)C)NC1=O", "note": "[GFc-C35-3/15 (L11M), DCTYTNGNMVWCT] (H-DCTYTNGNMVWCT-NH2; disulfide 2-12)", "values": [{"measurement": "Kd", "setting": "[1]", "result": 280, "unit": "µM"}, {"measurement": "affinity compared with the original peptide, in words", "result": "a decrease in affinity"}]}, {"smiles": "CC(C)C[C@@H]1NC(=O)[C@H](CC(N)=O)NC(=O)CNC(=O)[C@H](CCCNC(=N)N)NC(=O)[C@H](Cc2c[nH]cn2)NC(=O)[C@H](Cc2ccc(O)cc2)NC(=O)[C@H]([C@@H](C)O)NC(=O)[C@@H](NC(=O)[C@@H](N)CC(=O)O)CSSC[C@@H](C(=O)N[C@H](C(N)=O)[C@@H](C)O)NC(=O)[C@H](Cc2c[nH]c3ccccc23)NC(=O)[C@H](C(C)C)NC1=O", "note": "[GFc-C35-3/15 (T7H, N8R), DCTYHRGNLVWCT] (H-DCTYHRGNLVWCT-NH2; disulfide 2-12)", "values": [{"measurement": "Kd", "setting": "[1]", "result": 1.1, "unit": "µM"}]}, {"smiles": "CC(C)C[C@@H]1NC(=O)[C@H](CCC(=O)O)NC(=O)CNC(=O)[C@H](CCCNC(=N)N)NC(=O)[C@H](Cc2c[nH]cn2)NC(=O)[C@H](Cc2ccc(O)cc2)NC(=O)[C@H](C)NC(=O)[C@@H](NC(=O)[C@H](CC(=O)O)NC(=O)[C@@H]2CCCN2C(=O)CN)CSSC[C@@H](C(=O)N[C@@H](CO)C(=O)N[C@@H](Cc2ccccc2)C(=O)N[C@@H](Cc2c[nH]cn2)C(N)=O)NC(=O)[C@H](Cc2c[nH]c3ccccc23)NC(=O)[C@H](C(C)C)NC1=O", "note": "[C35A (T15S), GPDCAYHRGELVWCSFH] (H-GPDCAYHRGELVWCSFH-NH2; disulfide 4-14)", "values": [{"measurement": "Kd", "setting": "[1]", "result": 0.0144, "unit": "µM"}]}, {"smiles": "CC(C)C[C@@H]1NC(=O)[C@H](CCC(=O)O)NC(=O)CNC(=O)[C@H](CCCNC(=N)N)NC(=O)[C@H](Cc2c[nH]cn2)NC(=O)[C@H](Cc2ccc(O)cc2)NC(=O)[C@H]([C@@H](C)O)NC(=O)[C@@H](NC(=O)[C@@H](N)CC(=O)O)CSSC[C@@H](C(=O)N[C@H](C(N)=O)[C@@H](C)O)NC(=O)[C@H](Cc2c[nH]c3ccccc23)NC(=O)[C@H](C(C)C)NC1=O", "note": "[GFc-C35-3/15 (T7H, N8R, N10E), DCTYHRGELVWCT] (H-DCTYHRGELVWCT-NH2; disulfide 2-12)", "values": [{"measurement": "Kd", "setting": "[1]", "result": 0.27, "unit": "µM"}, {"measurement": "affinity compared with the parent peptide, in words", "setting": "compared with GFc-C35-3/15 (T7H, N8R)", "result": "affinity-enhancing effect"}]}, {"smiles": "CC(C)C[C@@H]1NC(=O)[C@H](CCCNC(=N)N)NC(=O)CNC(=O)[C@H](CC(N)=O)NC(=O)[C@H]([C@@H](C)O)NC(=O)[C@H](Cc2ccc(O)cc2)NC(=O)[C@H]([C@@H](C)O)NC(=O)[C@@H](NC(=O)[C@@H](N)CC(=O)O)CSSC[C@@H](C(=O)N[C@H](C(N)=O)[C@@H](C)O)NC(=O)[C@H](Cc2c[nH]c3ccccc23)NC(=O)[C@H](C(C)C)NC1=O", "note": "[GFc-C35-3/15 (N10R), DCTYTNGRLVWCT] (H-DCTYTNGRLVWCT-NH2; disulfide 2-12)", "values": [{"measurement": "Kd", "setting": "[1]", "result": 42, "unit": "µM"}, {"measurement": "affinity compared with the original peptide, in words", "result": "higher affinity than the original peptide"}]}, {"smiles": "CC(C)C[C@@H]1NC(=O)[C@H](CC(N)=O)NC(=O)CNC(=O)[C@H](CC(N)=O)NC(=O)[C@H]([C@@H](C)O)NC(=O)[C@H](Cc2ccc(O)cc2)NC(=O)[C@H]([C@@H](C)O)NC(=O)[C@@H](NC(=O)[C@H](CC(=O)O)NC(=O)[C@@H]2CCCN2C(=O)CN)CSSC[C@@H](C(=O)N[C@H](C(=O)N[C@@H](Cc2ccccc2)C(=O)N[C@@H](Cc2c[nH]cn2)C(N)=O)[C@@H](C)O)NC(=O)[C@H](Cc2c[nH]c3ccccc23)NC(=O)[C@H](C(C)C)NC1=O", "note": "[GFc-C35, GPDCTYTNGNLVWCTFH] (H-GPDCTYTNGNLVWCTFH-NH2; disulfide 4-14)", "values": [{"measurement": "Kd", "setting": "[1]", "result": 14, "unit": "µM"}]}, {"smiles": "CC(C)C[C@@H]1NC(=O)[C@H](CC(N)=O)NC(=O)CNC(=O)[C@H](CC(N)=O)NC(=O)[C@H]([C@@H](C)O)NC(=O)[C@H](Cc2ccc(O)cc2)NC(=O)[C@H]([C@@H](C)O)NC(=O)[C@@H](NC(=O)[C@@H](N)CCCNC(=N)N)CSSC[C@@H](C(=O)N[C@H](C(N)=O)[C@@H](C)O)NC(=O)[C@H](Cc2c[nH]c3ccccc23)NC(=O)[C@H](C(C)C)NC1=O", "note": "[GFc-C35-3/15 (D3R), RCTYTNGNLVWCT] (H-RCTYTNGNLVWCT-NH2; disulfide 2-12)", "values": [{"measurement": "Kd", "setting": "[1]", "result": 69, "unit": "µM"}, {"measurement": "affinity compared with the original peptide, in words", "result": "an increase in affinity"}]}, {"smiles": "CC(C)C[C@@H]1NC(=O)[C@H](CCC(N)=O)NC(=O)CNC(=O)[C@H](CC(N)=O)NC(=O)[C@H]([C@@H](C)O)NC(=O)[C@H](Cc2ccc(O)cc2)NC(=O)[C@H]([C@@H](C)O)NC(=O)[C@@H](NC(=O)[C@@H](N)CC(=O)O)CSSC[C@@H](C(=O)N[C@H](C(N)=O)[C@@H](C)O)NC(=O)[C@H](Cc2c[nH]c3ccccc23)NC(=O)[C@H](C(C)C)NC1=O", "note": "[GFc-C35-3/15 (N10Q), DCTYTNGQLVWCT] (H-DCTYTNGQLVWCT-NH2; disulfide 2-12; N-terminus and C-terminus assumed)", "values": [{"measurement": "Kd", "setting": "[1]", "result": 160, "unit": "µM"}, {"measurement": "affinity compared with the original peptide, in words", "result": "almost equal affinity"}]}, {"smiles": "CC(C)C[C@@H]1NC(=O)[C@H](CC(N)=O)NC(=O)CNC(=O)[C@H](CC(C)C)NC(=O)[C@H]([C@@H](C)O)NC(=O)[C@H](Cc2ccc(O)cc2)NC(=O)[C@H]([C@@H](C)O)NC(=O)[C@@H](NC(=O)[C@@H](N)CC(=O)O)CSSC[C@@H](C(=O)N[C@H](C(N)=O)[C@@H](C)O)NC(=O)[C@H](Cc2c[nH]c3ccccc23)NC(=O)[C@H](C(C)C)NC1=O", "note": "[GFc-C35-3/15 (N8L), DCTYTLGNLVWCT] (H-DCTYTLGNLVWCT-NH2; disulfide 2-12)", "values": [{"measurement": "Kd", "setting": "[1]", "result": 260, "unit": "µM"}, {"measurement": "affinity compared with the original peptide, in words", "result": "greatly degreased affinity"}]}, {"smiles": "CC(C)C[C@@H]1NC(=O)[C@H](CCC(=O)O)NC(=O)CNC(=O)[C@H](CCCNC(=N)N)NC(=O)[C@H](Cc2c[nH]cn2)NC(=O)[C@H](Cc2ccc(O)cc2)NC(=O)[C@H](C)NC(=O)[C@@H](NC(=O)[C@@H](N)CC(=O)O)CSSC[C@@H](C(=O)N[C@H](C(N)=O)[C@@H](C)O)NC(=O)[C@H](Cc2c[nH]c3ccccc23)NC(=O)[C@H](C(C)C)NC1=O", "note": "[GFc-C35-3/15 (T5A, T7H, N8R, N10E), DCAYHRGELVWCT] (H-DCAYHRGELVWCT-NH2; disulfide 2-12)", "values": [{"measurement": "association rate constant ka", "setting": "[2]", "result": "4.6×10^5 M^−1S^−1"}, {"measurement": "dissociation rate constant kd", "setting": "[2]", "result": "2.5×10^−2 S^−1"}, {"measurement": "Kd", "setting": "SPR sensorgram analysis, human IgG, read-out: affinity (Kd value)", "result": 0.054, "unit": "µM"}, {"measurement": "fold increase in affinity (fold decrease in Kd value)", "result": "approximately 2400 fold"}]}, {"smiles": "CC(C)C[C@@H]1NC(=O)[C@H](CCC(=O)O)NC(=O)CNC(=O)[C@H](CCCNC(=N)N)NC(=O)[C@H](Cc2c[nH]cn2)NC(=O)[C@H](Cc2ccc(O)cc2)NC(=O)[C@H](C)NC(=O)[C@@H](NC(=O)[C@H](CC(=O)O)NC(=O)[C@@H]2CCCN2C(=O)CN)CSSC[C@@H](C(=O)N[C@H](C(=O)N[C@@H](Cc2c[nH]cn2)C(=O)N[C@@H](Cc2c[nH]cn2)C(N)=O)[C@@H](C)O)NC(=O)[C@H](Cc2c[nH]c3ccccc23)NC(=O)[C@H](C(C)C)NC1=O", "note": "[C35A (F16H), GPDCAYHRGELVWCTHH] (H-GPDCAYHRGELVWCTHH-NH2; disulfide 4-14)", "values": [{"measurement": "Kd", "setting": "[1]", "result": 0.0114, "unit": "µM"}]}, {"smiles": "CC(C)C[C@@H]1NC(=O)[C@H](CC(N)=O)NC(=O)CNC(=O)[C@H](CC(N)=O)NC(=O)[C@H]([C@@H](C)O)NC(=O)[C@H](Cc2ccc(O)cc2)NC(=O)[C@H]([C@@H](C)O)NC(=O)[C@@H](NC(=O)[C@H](CC(=O)O)NC(=O)[C@@H]2CCCN2)CSSC[C@@H](C(=O)N[C@H](C(=O)N[C@@H](Cc2ccccc2)C(N)=O)[C@@H](C)O)NC(=O)[C@H](Cc2c[nH]c3ccccc23)NC(=O)[C@H](C(C)C)NC1=O", "note": "[GFc-C35-2/16, PDCTYTNGNLVWCTF] (H-PDCTYTNGNLVWCTF-NH2; disulfide 3-13)", "values": [{"measurement": "Kd", "setting": "[1]", "result": 25, "unit": "µM"}]}, {"smiles": "CC(C)C[C@@H]1NC(=O)[C@H](CC(N)=O)NC(=O)CNC(=O)[C@H](CC(N)=O)NC(=O)[C@H](CO)NC(=O)[C@H](Cc2ccc(O)cc2)NC(=O)[C@H]([C@@H](C)O)NC(=O)[C@@H](NC(=O)[C@@H](N)CC(=O)O)CSSC[C@@H](C(=O)N[C@H](C(N)=O)[C@@H](C)O)NC(=O)[C@H](Cc2c[nH]c3ccccc23)NC(=O)[C@H](C(C)C)NC1=O", "note": "[GFc-C35-3/15 (T7S), DCTYSNGNLVWCT] (H-DCTYSNGNLVWCT-NH2; disulfide 2-12)", "values": [{"measurement": "Kd", "setting": "[1]", "result": 26, "unit": "µM"}]}, {"smiles": "CC(C)C[C@@H]1NC(=O)[C@H](CC(N)=O)NC(=O)CNC(=O)[C@H](CCCNC(=N)N)NC(=O)[C@H]([C@@H](C)O)NC(=O)[C@H](Cc2ccc(O)cc2)NC(=O)[C@H]([C@@H](C)O)NC(=O)[C@@H](NC(=O)[C@@H](N)CC(=O)O)CSSC[C@@H](C(=O)N[C@H](C(N)=O)[C@@H](C)O)NC(=O)[C@H](Cc2c[nH]c3ccccc23)NC(=O)[C@H](C(C)C)NC1=O", "note": "[GFc-C35-3/15 (N8R), DCTYTRGNLVWCT] (H-DCTYTRGNLVWCT-NH2; disulfide 2-12)", "values": [{"measurement": "Kd", "setting": "[1]", "result": 8, "unit": "µM"}, {"measurement": "affinity compared with the original peptide, in words", "result": "greatly increased affinity"}, {"measurement": "fold increase in affinity (fold decrease in Kd value)", "result": "approximately 18 fold"}]}]}
